Converted amounts (≈) assume the structure as drawn. Where a name gives a salt, the structure may show the parent alone. Each block holds one compound with its values, some of them ahead of it.
Tests used:
Format in all cases: physicochemical
[1] = hygroscopicity: weight gain at 87% RH; details: for weight gain (hygroscopicity): after 72 hours at 87% RH
Experimental: Polymorph A has an X-ray powder diffraction pattern that is unique to the form as previously described (FIG. 1). Upon microscopic examination, crystals appear as small needles and aggregates thereof, but which are not reliably distinguished from those of polymorph B (FIG. 2). By fusion microscopy, polymorph A is determined to commence melting at about 144° C., with no recrystallization noted upon further temperature increases. […] (FIG. 5).

[2] = equilibration of forms under ambient conditions (relative energy)
Text: As evaluated by equilibration of the polymorphs (A and B) under ambient conditions, polyporph A is the lower energy form.

[3] = comparison of forms: thermal stability
[4] = solid-state storage stability in sealed dark glass bottle under nitrogen; details: sealed dark colored glass bottle, under nitrogen gas
Text: However, polymorph B may be stably stored in solid form. If placed in a sealed dark colored glass bottle, under nitrogen gas, polymorph B crystals are stable for at least 6 weeks.
(§1) Examples of suitable solvent include ethyl acetate: hexanes 1:5.

[5] = conversion (bridging) to polymorph A in solvent
Experimental: Polymorph B crystals may also be converted back to polymorph A crystals by placement in a solvent in which the B form is very slightly soluble, such as n-hexanes. Over a period of time (for example, no more than 18 hours) crystals of polymorph A will develop. Prolonged granulation (for example 18 hours) even when conducted at 5° C. will also effect conversion to polymorph A.
as §1

[6] = comparison of forms: solubility in aqueous solvents; details: polymorph B versus polymorph A; salt versus all other known forms
[7] = salt screen for suitable crystalline properties; details: salt of compound (I′)
Experimental: Again using compound (I′), the following salt species were prepared and screened for the presence of suitable crystalline properties. […] The olamine salt was recovered as an oil. The meglumine salt material was determined to be amorphous. Both the benzathine (mono) and benzathine (bis) salts were also determined to be amorphous. Crystalline solids could also not be prepared for the L-arginine, L-lysine, calcium, potassium, and magnesium salts.

[8] = equilibrium solubility determined during polymorph screen; details: thermodynamic from solid; pH 7 water, four days at ambient temperature
Experimental: Using the microscopy methods described by Haleblaine and McCrone, Journal of Pharmaceutical Sciences, 58(8), pp. 911-929, 1969, a polymorph screen was conducted for the ethylene diamine (mono) salt of compound (I). No polymorphs were observed. A more extensive polymorph screen was run on the (mono) salt of compound (I′), involving 31 isolations, and again no polymorphs were observed. During the polymorph screen, an equilibrium solubility for the ethylene diamine (mono) salt of compound (I) was determined. After maintaining a sample for four days at ambient temperature, an equilibrium solubility value of approximately 4 mg/ml was determined, in pH 7 water. Additionally, the ethylene diamine (bis) salt was not observed in these studies.

hygroscopicity in words ([1]; 87% RH, ambient temperature): substantially non-hygroscopic
weight gain (hygroscopicity) ([1]; again at ambient temperature (second value stated)): 0.36%
weight gain (hygroscopicity) ([1]; ambient temperature (first value stated)): 0.2%
relative energy of the crystal form [2]: lowest energy form
thermal stability relative to all other known forms of compound (I) [3]: greater thermal stability
Compound: O=C(O)c1ccc(C(F)(F)F)cc1-c1ccc2c(c1)OC[C@H](Cc1ccccc1)[C@H]2O [Polymorph A, (3S-trans)-2-[3,4-dihydro-4-hydroxy-3-(phenylmethyl)-2H-1-benzopyran-7-yl]-4-(trifluoromethyl)-benzoic acid]

time stable in solid form [4]: at least 6 weeks
time for conversion to polymorph A ([5]; in a solvent in which the B form is very slightly soluble, such as n-hexanes): no more than 18 hours
solubility in aqueous solvents relative to other forms [6]: greater solubility in aqeuous solvents
Compound: O=C(O)c1ccc(C(F)(F)F)cc1-c1ccc2c(c1)OC[C@H](Cc1ccccc1)[C@H]2O [polymorph B, (3S-trans)-2-[3,4-dihydro-4-hydroxy-3-(phenylmethyl)-2H-1-benzopyran-7-yl]-4-(trifluoromethyl)-benzoic acid]

hygroscopicity of salt [7]: hygroscopic, becoming an oil
Compound: O=C(O)c1ccc(C(F)(F)F)cc1-c1ccc2c(c1)OC[C@@H](Cc1ccccc1)[C@@H]2O [sodium salt, (3R-trans)-2-[3,4-dihydro-4-hydroxy-3-(phenylmethyl)-2H-1-benzopyran-7-yl]-4-(trifluoromethyl)-benzioc acid]

time stable in solid form [4]: at least six weeks
bridging to polymorph A ([5]; hexanes alone): no bridging occurs
bridging to polymorph A ([5]; solvents with some minimal solubility, e.g. ethyl acetate: hexanes 1:5): readily bridges to polymorph A
relative energy of the crystal form [2]: higher in energy than polymorph A
Compound: O=C(O)c1ccc(C(F)(F)F)cc1-c1ccc2c(c1)OC[C@H](Cc1ccccc1)[C@H]2O [monohydrate, (3S-trans)-2-[3,4-dihydro-4-hydroxy-3-(phenylmethyl)-2H-1-benzopyran-7-yl]-4-(trifluoromethyl)-benzoic acid]

solubility thermodynamic at 4 days [8]: ~4000 µg/mL (≈ 9.34 mM)
solubility in aqueous solvents relative to other forms [6]: greater solubility in aqeuous solvents
Compound: O=C(O)c1ccc(C(F)(F)F)cc1-c1ccc2c(c1)OC[C@H](Cc1ccccc1)[C@H]2O [(3S-trans)-2-[3,4-dihydro-4-hydroxy-3-(phenylmethyl)-2H-1-benzopyran-7-yl]-4-(trifluoromethyl)-benzoic acid]
